Eleven compounds from US20110178104A1, “Anti-Heparin Compounds” (POLYMEDIX INC., priority 2010, published 2011) can be followed below.

One experiment has as its system enoxaparin (ENOX). Put plainly: FXa chromogenic assay (absence of plasma), enoxaparin. To be noted: enoxaparin 0.1 μg/mL, absence of plasma.
In the next experiment the test system is fondaparinux (FONDAPX). The experiment in a line: FXa chromogenic assay (absence of plasma), fondaparinux. To be noted: fondaparinux 0.02 μg/mL, absence of plasma.
Experiment [1] deals with unfractionated heparin (UFH). Put plainly: aPTT clotting assay, UFH 0.2 U/mL in plasma (Example 7). It is filed as biochemical. To be noted: UFH 0.2 U/mL in plasma. The procedure:
aPTT clotting Assay. Unfractionated heparin was mixed with plasma at a final concentration of 0.2 U/mL. […] The ACL Elite Hemostasis analyzer (Beckman Coulter™) was used to add aPTT reagent (HemosIL SynthASil) to supplemented plasma. Clotting was initiated by addition of CaCl2 and time to clot was recorded.

Starred links: 1 amine or outer side, 2 acyl side, 3 side chain; linkers in the order of their positions; H or OH if unused. Non-standard residues stand in square brackets, D forms with d. Residues, ends and D or L forms follow the SMILES beside them. *: point of attachment. NH(3-CONH2-4-OMe-phenyl) = COc1ccc(N*)cc1C(N)=O; 3Abz(6-OMe) = COc1ccc(N[*:1])cc1C(=O)[*:2]

Description for enoxaparin (ENOX): (§1) Human antithrombin was mixed with an anticoagulant agent (a LMWH or fondaparinux); final concentrations were 0.22 μg/mL for the LMWHs and 0.07 μg/mL for fondaparinux. […] Absorbance was read every 30 seconds over a 4 minute period in a SpectraMax 250 instrument (Molecular Devices, Inc.). EC50 values are determined by a curve-fit program (SoftMax Pro) using the following formula:
(§2) FXa Chromogenic Assay (absence of plasma). Human antithrombin was mixed with an anticoagulant (a LMWH or fondaparinux); final concentrations were 0.1 μg/mL for the LMWHs and 0.02 μg/mL for fondaparinux. […] Absorbance was read every 30 seconds over a 4 minute period in a SpectraMax 250 instrument (Molecular Devices Inc.™) The slope of absorbance vs time was calculated for each compound concentration. EC50 values were determined using a curve fit program (GraphPad Prism 5).
Description for fondaparinux (FONDAPX): as §1, §2

In the case of `COc1ccc(NC(=O)[C@H](CCCCN)NC(=O)c2cc(NC(=O)[C@H](CCCCN)NC(=O)c3cc(NC(=O)[C@H](CCCCN)NC(=O)c4cc(NC(=O)[C@@H](N)CCCNC(=N)N)ccc4OC)ccc3OC)ccc2OC)cc1C(N)=O` [Compound 81], the “ENOX (FXa) EC50” value in the experiment on enoxaparin (ENOX) worked out at 0.26 µg/mL. The “FONDAPX (FXa) EC50” value in the experiment on fondaparinux (FONDAPX) worked out at 3.23 µg/mL. In addition, the “UFH (aPTT) EC50” value in experiment [1] stood at 1.97 µg/mL.
As for `COc1ccc(NC(=O)[C@H](CCCCN)NC(=O)c2cc(NC(=O)[C@H](CCCNC(=N)N)NC(=O)c3cc(NC(=O)[C@H](CCCCN)NC(=O)c4cc(NC(=O)[C@@H](N)CCCCN)ccc4OC)ccc3OC)ccc2OC)cc1C(N)=O` [Compound 79], the “ENOX (FXa) EC50” value with enoxaparin (ENOX) was found to be 0.41 µg/mL. Moreover, in the experiment with fondaparinux (FONDAPX), the “FONDAPX (FXa) EC50” value was determined as 7.07 µg/mL. Besides, the “UFH (aPTT) EC50” value in experiment [1] was found to be 3.02 µg/mL.
Consider `COc1ccc(NC(=O)[C@@H](CCCNC(=N)N)NC(=O)c2cc(NC(=O)[C@@H](CCCNC(=N)N)NC(=O)c3cc(NC(=O)[C@@H](CCCNC(=N)N)NC(=O)c4cc(NC(=O)[C@@H](C)NC(=O)CCCCNC(=N)N)ccc4OC)ccc3OC)ccc2OC)cc1C(N)=O` [Compound 49], for which the “ENOX (FXa) EC50” value in the experiment on enoxaparin (ENOX) turned out to be 0.16 µg/mL. The “FONDAPX (FXa) EC50” value in the experiment with fondaparinux (FONDAPX) amounted to 1.03 µg/mL. For the same compound, the “UFH (aPTT) EC50” value in experiment [1] was 1.42 µg/mL.
For `COc1ccc(NC(=O)[C@H](CCCCN)NC(=O)c2cc(NC(=O)[C@H](CCCCN)NC(=O)c3cc(NC(=O)[C@H](CCCCN)NC(=O)c4cc(NC(=O)[C@@H](N)CCCCN)ccc4OC)ccc3OC)ccc2OC)cc1C(=O)NCCCCCC(=O)O` [Compound 143], in that order: 1.011 µg/mL, 12.700 µg/mL and 2.96 µg/mL.
On to `COc1ccc(NC(=O)[C@H](CCCCN)NC(=O)c2cc(NC(=O)[C@H](CCCCN)NC(=O)c3cc(NC(=O)[C@H](CCCCN)NC(=O)c4cc(NC(=O)[C@@H](N)CCCCN)ccc4OCC(=O)O)ccc3OC)ccc2OC)cc1C(N)=O` [Compound 119], for which the “ENOX (FXa) EC50” value with enoxaparin (ENOX) turned out to be 0.9421 µg/mL. For the same compound, the “FONDAPX (FXa) EC50” value in the experiment on fondaparinux (FONDAPX) is 13.39 µg/mL. Besides, the “UFH (aPTT) EC50” value in experiment [1] is 11.56 µg/mL.
Regarding `COc1ccc(NC(=O)[C@@H](CCCCN)NC(=O)c2cc(NC(=O)[C@@H](CCCCN)NC(=O)c3cc(NC(=O)[C@@H](CCCCN)NC(=O)c4cc(NC(=O)[C@H](N)CCCCN)ccc4OC)ccc3OC)ccc2OC)cc1C(N)=O` [Compound 17], in the experiment with enoxaparin (ENOX), the “ENOX (FXa) EC50” value was determined as 0.50 µg/mL. Further, in the experiment on fondaparinux (FONDAPX), the “FONDAPX (FXa) EC50” value turned out to be 11.15 µg/mL. In addition, the “UFH (aPTT) EC50” value in experiment [1] is 2.33 µg/mL.
For `COc1cc(OC)c(C(=O)N[C@H]2CC[C@H](NC(=O)c3cc(C(=O)NCCN(C)C)c(OCCCCCNC(=N)N)cc3OCCCCCNC(=N)N)CC2)cc1C(=O)NC1CCC(NC(=O)c2cc(C(=O)NCCN(C)C)c(OCCCCCNC(=N)N)cc2OCCCCCNC(=N)N)CC1` (stereo partly drawn) [Compound 3], in that order: 0.25 µg/mL, 1.34 µg/mL and 1.76 µg/mL.
For `COc1ccc(NC(=O)[C@@H](CCCNC(=N)N)NC(=O)c2cc(NC(=O)[C@@H](CCCNC(=N)N)NC(=O)c3cc(NC(=O)[C@@H](CCCNC(=N)N)NC(=O)c4cc(NC(C)=O)ccc4OC)ccc3OC)ccc2OC)cc1C(=O)NCCCCCN` [Compound 53], in that order: 0.21 µg/mL, 1.12 µg/mL and 2.08 µg/mL.
`COc1ccc(NC(=O)[C@H](CCCCN)NC(=O)c2cc(NC(=O)[C@H](CCCCN)NC(=O)c3cc(NC(=O)[C@H](CCCCN)NC(=O)c4cc(NC(=O)[C@@H](N)CCCCN)ccc4OC)ccc3OC)ccc2SC)cc1C(N)=O` [Compound 133]: the “ENOX (FXa) EC50” value in the experiment on enoxaparin (ENOX) is greater than 20 µg/mL. In addition, in the experiment on fondaparinux (FONDAPX), the “FONDAPX (FXa) EC50” value is “inactive”. Moreover, the “UFH (aPTT) EC50” value in experiment [1] is greater than 10 µg/mL.
Take `N=C(N)NCCCCC(=O)Nc1cc(C(F)(F)F)cc(NC(=O)c2ccc(C(=O)Nc3cc(C(F)(F)F)cc(NC(=O)CCCCNC(=N)N)c3SCCN)cc2)c1SCCN` [Compound 87]: in the experiment on enoxaparin (ENOX), the “ENOX (FXa) EC50” value came to 6.35 µg/mL. Besides, the “FONDAPX (FXa) EC50” value with fondaparinux (FONDAPX) was 15.91 µg/mL. Moreover, the “UFH (aPTT) EC50” value in experiment [1] is greater than 10 µg/mL.
Consider `COc1ccc(NC(=O)[C@@H](CCCNC(=N)N)NC(=O)c2cc(NC(=O)[C@@H](CCCNC(=N)N)NC(=O)[C@H](C)NC(=O)c3cc(NC(=O)[C@@H](CCCNC(=N)N)NC(=O)c4cc(NC(=O)[C@H](N)CCCNC(=N)N)ccc4OC)ccc3OC)ccc2OC)cc1C(N)=O` [Compound 74] (H-[dR][3Abz(6-OMe)][dR][3Abz(6-OMe)]A[dR][3Abz(6-OMe)][dR]-{NH(3-CONH2-4-OMe-phenyl)}), for which the “ENOX (FXa) EC50” value with enoxaparin (ENOX) was 5.13 µg/mL. In the experiment on fondaparinux (FONDAPX), the “FONDAPX (FXa) EC50” value turned out to be 47.76 µg/mL. Moreover, in experiment [1], the “UFH (aPTT) EC50” value was 5.20 µg/mL.
